Columns and labels:
[1] = test system: methicillin resistant S. aureus Mu50 strain (S. aureus ATCC700699) biofilm; test: Biofilm susceptibility to vancomycin, combination treatment regimen (mature biofilm treated with compound plus vancomycin); format: cell-based; details: for Combin. (100 μM): percentage Colony Forming Units (CFU's) per biofilm: compound 100 μM together with VAN 20 μg/ml on mature biofilm; for Combin. (100 μM): percentage Colony Forming Units (CFU's) per biofilm / Combin. (25 μM): percentage Colony Forming Units (CFU's) per biofilm: compared to the untreated (negative) control; for EC50: concentration needed to get 50% killing compared to antibiotic alone (VAN 20 μg/ml) and complete killing, read-out: Combin. (EC50); for Combin. (25 μM): percentage Colony Forming Units (CFU's) per biofilm: compound 25 μM together with VAN 20 μg/ml on mature biofilm
Description: (§1) The compounds were evaluated for their effect on biofilm susceptibility both under pre-treatment and combination treatment regimens. In the pre-treatment regimen, a methicillin resistant S. aureus Mu50 strain (S. aureus ATCC700699) was allowed to form biofilms in the presence of the compounds after which the biofilm was treated with vancomycin (20 μg/ml). In the combination treatment regimen, S. aureus Mu50 was allowed to form a mature biofilm after which it was treated with a combination of a compound and vancomycin. In brief, 100 μl of a standardized inoculum (10^8 CFU/ml) was placed in the wells of a round-bottom 96-well microtiter plate. The cells were allowed to adhere to the plate in the absence (combined treatment) or presence (pre-treatment) of the compounds (0.1-250 μM) for 4 h at 37° C. After this adhesion step, non-adhered cells were removed, the wells were rinsed and fresh medium with or without the compounds was added. The plates were incubated for an additional 20 h at 37° C. After this, the medium was removed, biofilms were rinsed with physiological saline and vancomycin (20 μg/ml) was added alone (pre-treatment) or with the compounds (combined treatment, 0.1-250 μM). Plates were placed at 37° C. for 24 h after which medium was removed, wells were rinsed and the surviving cells in each condition were collected. The number of surviving cells under each condition was compared to vancomycin treatment alone and was assessed by conventional plating. The REF compound (hamamelitannin) was also observed for its effect on biofilm susceptibility towards other antibiotics (incl. vancomycin, cefoxitin, tobramycin, cefazolin, cefalonium, daptomycin, linezolide and cephalexin). Biofilms were formed as described above and were treated with the antibiotics alone or in combination with the REF compound (250 μM). The number of surviving cells under each condition was compared to the untreated control biofilm and was assessed by conventional plating.

[2] = test system: methicillin resistant S. aureus Mu50 strain (S. aureus ATCC700699) biofilm; test: Biofilm susceptibility to vancomycin, pre-treatment regimen (biofilm formed in presence of compound, then vancomycin); format: cell-based; details: for Pretreat (100 μM): percentage Colony Forming Units (CFU's) per biofilm: compound 100 μM during biofilm formation; for Pretreat (100 μM): percentage Colony Forming Units (CFU's) per biofilm / Pretreat. (25 μM): percentage Colony Forming Units (CFU's) per biofilm: then VAN 20 μg/ml, compared to the untreated (negative) control; for EC50: concentration needed to get 50% killing compared to antibiotic alone (VAN 20 μg/ml) and complete killing, read-out: Pretreat. (EC50); for Pretreat. (25 μM): percentage Colony Forming Units (CFU's) per biofilm: compound 25 μM during biofilm formation
Description: as §1

SMILES | Combin. (100 μM): percentage Colony Forming Units (CFU's) per biofilm [1] | Pretreat (100 μM): percentage Colony Forming Units (CFU's) per biofilm [2] | EC50 [1] | EC50 [2] | Combin. (25 μM): percentage Colony Forming Units (CFU's) per biofilm [1] | Pretreat. (25 μM): percentage Colony Forming Units (CFU's) per biofilm [2]
COc1ccc(C(=O)NC[C@H]2OC[C@@](O)(CNC(=O)c3ccccc3)[C@@H]2O)cc1OC [compound 183, N-(((2R,3R,4S)-4-(benzamidomethyl)-3,4-dihydroxytetrahydrofuran-2-yl)methyl)-3,4-dimethoxybenzamide] | 61.60 percentage | 60.04 percentage |  |  |  | 
O=C(NC[C@H]1OC[C@@](O)(CNC(=O)c2ccccc2Cl)[C@@H]1O)c1ccccc1Cl [compound 249, N,N′-(((2R,3R,4S)-3,4-dihydroxytetrahydrofuran-2,4-diyl)bis(methylene))bis(2-chlorobenzamide)] | 13.59 percentage | 6.67 percentage | 28.4 µM | 5.36 µM |  | 
O=C(NC[C@H]1OC[C@@](O)(CNC(=O)c2ccccc2)[C@@H]1O)c1ccc(Cl)c(Cl)c1 [compound 182, N-(((2R,3R,4S)-4-(benzamidomethyl)-3,4-dihydroxytetrahydrofuran-2-yl)methyl)-3,4-dichlorobenzamide] | 33.81 percentage | 42.13 percentage |  |  |  | 
O=C(NC[C@]1(O)CO[C@H](CNC(=O)c2ccccc2Cl)[C@H]1O)c1ccccc1F [compound 245, 2-chloro-N-(((2R,3R,4S)-4-((2-fluorobenzamido)methyl)-3,4-dihydroxytetrahydrofuran-2-yl)methyl)benzamide] |  |  | 62.2 µM | 48.6 µM | 44.14 percentage | 61.75 percentage
CCS(=O)(=O)NC[C@H]1OC[C@@](O)(CNC(=O)c2ccccc2)[C@@H]1O [compound 212, N-(((3S,4R,5R)-5-(ethylsulfonamidomethyl)-3,4-dihydroxytetrahydrofuran-3-yl)methyl)benzamide] | 52.64 percentage | 50.68 percentage |  |  |  | 
O=C(NC[C@]1(O)CO[C@H](CNC(=O)c2cnccn2)[C@H]1O)c1ccccc1 [compound 208, N-(((2R,3R,4S)-4-(benzamidomethyl)-3,4-dihydroxytetrahydrofuran-2-yl)methyl)pyrazine-2-carboxamide] | 18.77 percentage | 10.52 percentage |  |  |  | 
O=C(NC[C@]1(O)CO[C@H](CNS(=O)(=O)c2ccccc2-c2ccccc2)[C@H]1O)c1ccccc1 [compound 220, N-(((3S,4R,5R)-5-(([1,1′-biphenyl]-2-sulfonamido)methyl)-3,4-dihydroxytetrahydrofuran-3-yl)methyl)benzamide] | 29.85 percentage | 25.63 percentage |  |  |  | 
O=C(NC[C@H]1OC[C@@](O)(CNC(=O)c2ccccc2)[C@@H]1O)c1cccc(Cl)c1 [compound 162, N-(((2R,3R,4S)-4-(benzamidomethyl)-3,4-dihydroxytetrahydrofuran-2-yl)methyl)-3-chlorobenzamide] | 29.06 percentage | 24.07 percentage |  |  |  | 
O=C(CCc1ccccc1)NC[C@]1(O)CO[C@H](CNC(=O)c2ccccc2Cl)[C@H]1O [compound 260, 2-chloro-N-(((2R,3R,4S)-3,4-dihydroxy-4-((3-phenylpropanamido)methyl)tetrahydrofuran-2-yl)methyl)benzamide] | 71.12 percentage | 57.01 percentage |  |  |  | 
CN(C[C@H]1OC[C@@](O)(CNC(=O)c2ccccc2)[C@@H]1O)C(=O)c1ccccc1 [compound 261, N-(((2R,3R,4S)-4-(benzamidomethyl)-3,4-dihydroxytetrahydrofuran-2-yl)methyl)-N-methylbenzamide] | 10.02 percentage | 6.09 percentage | 24.3 µM | 8.5 µM |  | 
O=C(NC[C@]1(O)CO[C@H](CNC(=O)c2ccccc2-c2ccccc2)[C@H]1O)c1ccccc1 [compound 177, N-(((2R,3R,4S)-4-(benzamidomethyl)-3,4-dihydroxytetrahydrofuran-2-yl)methyl)-[1,1′-biphenyl]-2-carboxamide] | 13.23 percentage | 15.07 percentage |  |  |  | 
N#Cc1ccc(C(=O)NC[C@H]2OC[C@@](O)(CNC(=O)c3ccccc3)[C@@H]2O)cc1 [compound 155, N-(((2R,3R,4S)-4-(benzamidomethyl)-3,4-dihydroxytetrahydrofuran-2-yl)methyl)-4-cyanobenzamide] | 16.06 percentage | 15.57 percentage |  |  |  | 
O=C(NC[C@]1(O)CO[C@H](Cn2cc(-c3ccccc3)nn2)[C@H]1O)c1ccccc1 [compound 221, N-(((3S,4R,5R)-3,4-dihydroxy-5-((4-phenyl-1H-1,2,3-triazol-1-yl)methyl)tetrahydrofuran-3-yl)methyl)benzamide] | 33.81 percentage | 54.01 percentage |  |  |  | 
Cn1c(C(=O)NC[C@H]2OC[C@@](O)(CNC(=O)c3ccccc3)[C@@H]2O)cc2ccccc21 [compound 186, N-(((2R,3R,4S)-4-(benzamidomethyl)-3,4-dihydroxytetrahydrofuran-2-yl)methyl)-1-methyl-1H-indole-2-carboxamide] | 42.75 percentage | 41.45 percentage |  |  |  | 
CC(C)S(=O)(=O)NC[C@H]1OC[C@@](O)(CNC(=O)c2ccccc2)[C@@H]1O [compound 213, N-(((3S,4R,5R)-3,4-dihydroxy-5-(((1-methylethyl)sulfonamido)methyl)tetrahydrofuran-3-yl)methyl)benzamide] | 32.67 percentage | 28.32 percentage |  |  |  | 
O=C(NC[C@]1(O)CO[C@H](Cn2nncc2-c2ccccc2)[C@H]1O)c1ccccc1 [compound 222, N-(((3S,4R,5R)-3,4-dihydroxy-5-((5-phenyl-1H-1,2,3-triazol-1-yl)methyl)tetrahydrofuran-3-yl)methyl)benzamide] | 73.90 percentage | 47.10 percentage |  |  |  | 
O=C(NC[C@H]1OC[C@@](O)(CNC(=O)c2ccccc2)[C@@H]1O)c1ccc(F)cc1 [compound 152, N-(((2R,3R,4S)-4-(benzamidomethyl)-3,4-dihydroxytetrahydrofuran-2-yl)methyl)-4-fluorobenzamide] | 14.05 percentage | 15.07 percentage |  |  |  | 
Cc1cccc(C(=O)NC[C@H]2OC[C@@](O)(CNC(=O)c3ccccc3)[C@@H]2O)c1 [compound 160, N-(((2R,3R,4S)-4-(benzamidomethyl)-3,4-dihydroxytetrahydrofuran-2-yl)methyl)-3-methylbenzamide] | 23.39 percentage | 23.09 percentage |  |  |  | 
O=C(NC[C@]1(O)CO[C@H](CNC(=O)c2ccccc2Cl)[C@H]1O)c1cccc(F)c1 [compound 240, 2-chloro-N-(((2R,3R,4S)-4-((3-fluorobenzamido)methyl)-3,4-dihydroxytetrahydrofuran-2-yl)methyl)benzamide] |  |  |  |  | 91.32 percentage | 118.37 percentage
O=C(NC[C@H]1OC[C@@](O)(CNC(=O)c2ccccc2Cl)[C@@H]1O)c1ccc(-c2ccccc2)cc1 [compound 250, N-(((2R,3R,4S)-4-((2-chlorobenzamido)methyl)-3,4-dihydroxytetrahydrofuran-2-yl)methyl)-[1,1′-biphenyl]-4-carboxamide] | 29.48 percentage | 18.82 percentage | 61.3 µM | 23 µM |  | 
CC(C)(C)C(=O)NC[C@H]1OC[C@@](O)(CNC(=O)c2ccccc2)[C@@H]1O [compound 226, N-(((3S,4R,5R)-3,4-dihydroxy-5-(pivalamidomethyl)tetrahydrofuran-3-yl)methyl)benzamide] | 28.64 percentage | 50.74 percentage |  |  |  | 
